Assay results: BindingDB's records for doi:10.7270/Q2DF6PMF (Nmmlsc, 2007)

What follows are compounds tested against T1, N-formyl peptide receptor 2 (Homo sapiens, UniProt P25090) (assay: concentration-dependent FPRL1 ligand displacement – cell-based, FPR counter-screen, fluorescent ligand, dose response (AID 520)). Conditions: not given.
T1 sequence (P25090 whole entry): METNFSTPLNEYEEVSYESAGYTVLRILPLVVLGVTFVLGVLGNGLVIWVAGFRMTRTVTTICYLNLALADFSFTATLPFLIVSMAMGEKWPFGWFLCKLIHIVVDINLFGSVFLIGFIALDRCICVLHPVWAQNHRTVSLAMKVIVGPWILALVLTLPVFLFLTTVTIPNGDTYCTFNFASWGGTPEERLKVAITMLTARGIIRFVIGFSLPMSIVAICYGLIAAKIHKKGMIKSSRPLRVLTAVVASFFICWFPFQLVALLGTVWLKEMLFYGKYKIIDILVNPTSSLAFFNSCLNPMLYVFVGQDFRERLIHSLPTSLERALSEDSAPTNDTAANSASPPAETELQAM

IC50 [µM] | Ki [µM] | SMILES
> 66.7 | > 40.3 | COCCCN1C(=O)C(=O)C(C(=O)c2ccco2)C1c1cccc(Br)c1 (stereo not drawn) [2-(3-bromophenyl)-3-(furan-2-carbonyl)-4-hydroxy-1-(3-methoxypropyl)-2H-pyrrol-5-one]
> 66.7 | > 40.3 | O=C1C(=O)N(c2ncccn2)C(c2cccc(Cl)c2)C1C(=O)c1ccco1 (stereo not drawn) [2-(3-chlorophenyl)-3-(furan-2-carbonyl)-4-hydroxy-1-pyrimidin-2-yl-2H-pyrrol-5-one]
> 66.7 | > 40.3 | CCOc1cc(C2C(C(=O)c3ccco3)C(=O)C(=O)N2CCc2ccccc2)ccc1O (stereo not drawn) [2-(3-ethoxy-4-hydroxyphenyl)-3-(furan-2-carbonyl)-4-hydroxy-1-(2-phenylethyl)-2H-pyrrol-5-one]
> 66.7 | > 40.3 | CCOc1cc(C2C(C(=O)c3ccc(C)o3)C(=O)C(=O)N2CCc2ccccc2)ccc1O (stereo not drawn) [2-(3-ethoxy-4-hydroxyphenyl)-4-hydroxy-3-(5-methylfuran-2-carbonyl)-1-(2-phenylethyl)-2H-pyrrol-5-one]
> 66.7 | > 40.3 | COc1cc(C2C(C(=O)c3ccc(C)o3)C(=O)C(=O)N2CCc2ccccc2)ccc1O (stereo not drawn) [2-(3-methoxy-4-oxidanyl-phenyl)-3-(5-methylfuran-2-yl)carbonyl-4-oxidanyl-1-(2-phenylethyl)-2H-pyrrol-5-one]
> 66.7 | > 40.3 | COc1cc(C2C(C(=O)c3ccc(C)o3)C(=O)C(=O)N2Cc2cccnc2)ccc1O (stereo not drawn) [2-(3-methoxy-4-oxidanyl-phenyl)-3-(5-methylfuran-2-yl)carbonyl-4-oxidanyl-1-(pyridin-3-ylmethyl)-2H-pyrrol-5-one]
> 66.7 | > 40.3 | COCCCN1C(=O)C(=O)C(C(=O)c2ccco2)C1c1ccc(Br)cc1 (stereo not drawn) [2-(4-bromophenyl)-3-(furan-2-carbonyl)-4-hydroxy-1-(3-methoxypropyl)-2H-pyrrol-5-one]
> 66.7 | > 40.3 | Cc1nc(C)c(C(=O)C2C(=O)C(=O)N(CCCn3ccnc3)C2c2ccc(Cl)cc2)s1 (stereo not drawn) [2-(4-chlorophenyl)-3-(2,4-dimethyl-1,3-thiazole-5-carbonyl)-4-hydroxy-1-(3-imidazol-1-ylpropyl)-2H-pyrrol-5-one]
> 66.7 | > 40.3 | O=C1C(=O)N(c2ncccn2)C(c2ccc(Cl)cc2)C1C(=O)c1ccco1 (stereo not drawn) [2-(4-chlorophenyl)-3-(furan-2-carbonyl)-4-hydroxy-1-pyrimidin-2-yl-2H-pyrrol-5-one]
> 66.7 | > 40.3 | CCOc1ccc(C2C(C(=O)c3cccs3)C(=O)C(=O)N2CCCn2ccnc2)cc1 (stereo not drawn) [2-(4-ethoxyphenyl)-1-(3-imidazol-1-ylpropyl)-4-oxidanyl-3-thiophen-2-ylcarbonyl-2H-pyrrol-5-one]
> 66.7 | > 40.3 | CCOc1ccc(C2C(C(=O)c3ccco3)C(=O)C(=O)N2CCCn2ccnc2)cc1 (stereo not drawn) [2-(4-ethoxyphenyl)-3-(furan-2-carbonyl)-4-hydroxy-1-(3-imidazol-1-ylpropyl)-2H-pyrrol-5-one]
> 66.7 | > 40.3 | CCOc1ccc(C2C(C(=O)c3ccco3)C(=O)C(=O)N2Cc2cccnc2)cc1 (stereo not drawn) [2-(4-ethoxyphenyl)-3-(furan-2-carbonyl)-4-hydroxy-1-(pyridin-3-ylmethyl)-2H-pyrrol-5-one]
> 66.7 | – | COC(=O)COc1ccc2c(=O)c(Oc3ccccc3)c(C)oc2c1 [2-(4-keto-2-methyl-3-phenoxy-chromen-7-yl)oxyacetic acid methyl ester]
> 66.7 | – | COc1ccc2c(=O)c(N3C(=O)c4ccccc4C3=O)c(C)oc2c1 [2-(4-keto-7-methoxy-2-methyl-chromen-3-yl)isoindoline-1,3-quinone]
> 66.7 | – | O=C(O)CC1Oc2ccc(Cl)cc2NC1=O (stereo not drawn) [2-(6-chloranyl-3-oxidanylidene-4H-1,4-benzoxazin-2-yl)ethanoic acid]
> 66.7 | – | Cc1cc(SCC(N)=O)nc(SCC(=O)c2ccccc2)n1 [2-(6-methyl-2-phenacylsulfanylpyrimidin-4-yl)sulfanylacetamide]
> 66.7 | – | CCc1ccccc1NC(=O)C(C#N)Cc1cccnc1 (stereo not drawn) [2-Cyano-N-(2-ethyl-phenyl)-2-pyridin-3-ylmethyl-acetamide]
> 66.7 | – | CC1CCN(S(=O)(=O)c2ccc3c(c2)oc(=O)n3CC(=O)NCc2ccc3c(c2)OCO3)CC1 [2-[2-keto-6-(4-methylpiperidino)sulfonyl-1,3-benzoxazol-3-yl]-N-piperonyl-acetamide]
> 66.7 | – | CCc1nnc(NC(=O)CSc2nnc(-c3cc4ccccc4cc3O)n2CC)s1 [2-[4-Ethyl-5-(3-hydroxy-naphthalen-2-yl)-4H-[1,2,4]triazol-3-ylsulfanyl]-N-(5-ethyl-[1,3,4]thiadiazol-2-yl)-acetamide]
> 66.7 | – | COc1cccc(-c2nc(CS(=O)(=O)CC(=O)NCCC(C)C)c(C)o2)c1 [2-[[2-(3-methoxyphenyl)-5-methyl-1,3-oxazol-4-yl]methylsulfonyl]-N-(3-methylbutyl)acetamide]
> 66.7 | – | CCCNC(=O)CS(=O)(=O)Cc1nc(-c2cccc(OC)c2)oc1C [2-[[2-(3-methoxyphenyl)-5-methyl-1,3-oxazol-4-yl]methylsulfonyl]-N-propyl-ethanamide]
> 66.7 | – | CCc1cc2c(=O)c(-c3nc4ccccc4n3C)c(COCC(=O)O)oc2cc1OC(=O)C(C)(C)C [2-[[7-(2,2-dimethyl-1-oxopropoxy)-6-ethyl-3-(1-methyl-2-benzimidazolyl)-4-oxo-1-benzopyran-2-yl]methoxy]acetic acid]
> 66.7 | – | CCOC(=O)c1c(NC(=O)C2C3CCC(O3)C2C(=O)O)sc(C)c1-c1ccc(C)cc1 (stereo not drawn) [2-[[[3-ethoxycarbonyl-5-methyl-4-(4-methylphenyl)-2-thiophenyl]amino]-oxomethyl]-7-oxabicyclo[2.2.1]heptane-3-carboxylic acid]

The remaining lines, values behind:

SMILES | IC50 [µM] | Ki [µM]
COc1ccc(-c2cc(C(F)(F)F)nc(N3CCN(Cc4ccccc4)CC3)n2)cc1OC [2-(4-benzylpiperazin-1-yl)-4-(3,4-dimethoxyphenyl)-6-(trifluoromethyl)pyrimidine] | 12.1 | –
COc1ccc(CC(=O)Nc2ccc(-c3nnc(-c4ccc(C)cc4)o3)cc2)cc1 [2-(4-methoxyphenyl)-N-[4-[5-(4-methylphenyl)-1,3,4-oxadiazol-2-yl]phenyl]acetamide] | > 66.7 | –
CC(C)CN(CC(C)C)C(=O)CS(=O)(=O)Cc1ccccc1 [2-(benzylsulfonyl)-N,N-diisobutylacetamide] | > 66.7 | –
Cc1sc(NC(=O)C2CCCCC2C(=O)O)c(C(N)=O)c1-c1ccc(C(C)(C)C)cc1 (stereo not drawn) [2-({[3-(aminocarbonyl)-4-(4-tert-butylphenyl)-5-methyl-2-thienyl]amino}carbonyl)cyclohexanecarboxylic acid] | > 66.7 | –
Cc1nn(-c2nc3ccccc3s2)c(C)c1Oc1ccccc1O [2-[1-(1,3-benzothiazol-2-yl)-3,5-dimethyl-pyrazol-4-yl]oxyphenol] | > 66.7 | –
COC(=O)Cc1n[nH]c2c1C(C1C=CCCC1)C(C#N)C(=N)O2 (stereo not drawn) [2-[6-amino-5-cyano-4-(1-cyclohex-2-enyl)-2,4-dihydropyrano[2,3-c]pyrazol-3-yl]acetic acid methyl ester] | > 66.7 | > 40.3
O=C(O)C1CCCCC1C(=O)Nc1ccccc1Cl (stereo not drawn) [2-[(2-chloroanilino)-oxomethyl]-1-cyclohexanecarboxylic acid] | > 66.7 | –
CCc1nn2c(=O)cc(CSc3nc4sc5c(c4c(=O)n3C)CCCC5)nc2s1 [2-[(2-ethyl-5-keto-[1,3,4]thiadiazolo[3,2-a]pyrimidin-7-yl)methylthio]-3-methyl-5,6,7,8-tetrahydrobenzothiopheno[2,3-d]pyrimidin-4-one] | > 66.7 | –
Cc1ccc(F)c(NC(=O)C2CCCCC2C(=O)O)c1 (stereo not drawn) [2-[(2-fluoranyl-5-methyl-phenyl)carbamoyl]cyclohexane-1-carboxylic acid] | > 66.7 | –
COc1ccc(C)cc1NC(=O)C1CCCCC1C(=O)O (stereo not drawn) [2-[(2-methoxy-5-methyl-phenyl)carbamoyl]cyclohexane-1-carboxylic acid] | > 66.7 | –
N#Cc1c(C(F)(F)F)cc(-c2ccccc2)nc1SCc1nc(N)nc(N2CCOCC2)n1 [2-[(4-amino-6-morpholin-4-yl-1,3,5-triazin-2-yl)methylsulfanyl]-6-phenyl-4-(trifluoromethyl)pyridine-3-carbonitrile] | > 66.7 | –
CCOC(=O)c1c(NC(=O)c2cc(C3CC3)on2)sc2c1CCCC2 [2-[(5-cyclopropylisoxazole-3-carbonyl)amino]-4,5,6,7-tetrahydrobenzothiophene-3-carboxylic acid ethyl ester] | > 66.7 | –
COc1ccc(Cl)cc1-n1c(=S)sc2c(O)nc(SCC(=O)NCC3CCCO3)nc21 (stereo not drawn) [2-[[3-(5-chloranyl-2-methoxy-phenyl)-7-oxidanylidene-2-sulfanylidene-4H-[1,3]thiazolo[4,5-d]pyrimidin-5-yl]sulfanyl]-N-(oxolan-2-ylmethyl)ethanamide] | > 66.7 | –
O=C(NCC1CCCO1)c1ccc(NC(=O)C2CCCCC2C(=O)O)cc1 (stereo not drawn) [2-[[4-(oxolan-2-ylmethylcarbamoyl)phenyl]carbamoyl]cyclohexane-1-carboxylic acid] | > 66.7 | –
CCOC(=O)CSc1nnc(CNC(=O)c2cc(OCC)c(OCC)c(OCC)c2)n1C [2-[[4-methyl-5-[[(3,4,5-triethoxybenzoyl)amino]methyl]-1,2,4-triazol-3-yl]thio]acetic acid ethyl ester] | 11.2 | –

Same assay, conditions: inactive by the depositor's call

SMILES | IC50 [µM]
CNc1nn(-c2cccc(Cl)c2)nc1N [2-(3-chlorophenyl)-4-N-methyltriazole-4,5-diamine] | 18.2
CCOc1cc(C(=O)NCc2nnc(SCC(=O)OC)n2C)cc(OCC)c1OCC [2-[[4-methyl-5-[[(3,4,5-triethoxybenzoyl)amino]methyl]-1,2,4-triazol-3-yl]thio]acetic acid methyl ester] | 18.5
